Measured values from US7507739B2, “6-[(substituted)phenyl]triazolopyrimidines as anticancer agents” (Wyeth, priority 2003, dated 2009).

Columns and labels:
COLO 205 cells = test: MTS cytotoxicity test with COLO 205 cells; assay type: cell-based, human; conditions: Homo sapiens, COLO 205, 72 h, 3 days
Experimental: The assay, which is sold in kit form by Promega (Madison, Wis.; CellTiter 96 AQueous Non-Radioactive Cell Proliferation Assay), is based on the conversion by viable cells, but not by dead cells, of the tetrazolium salt, MTS (3-(4,5-dimethylthiazol-2-yl)-5-(3-carboxymethoxyphenyl)-2-(4-sulphophenyl)-2H-tetrazolium, inner salt), into a water-soluble colored formazan which is detected by spectrophotometry. Compounds are tested at nine concentrations, in order to determine IC50 values. For the test procedure, cells are harvested by trypsinization (or, in the case of non-adherent cells, by simple resuspension), washed, counted and distributed to wells of 96-well flat-bottom microtiter plates at 1000 cells per well in 200 μL of medium. In addition, one row of wells on a separate plate received cells as above (“time 0” plate). All plates are incubated at 37° in humidified 5% CO2 in air for about 24 hr.
On day 2, compounds for test are diluted and added to wells. Compounds are dissolved in DMSO at 10 mg/mL. For each compound, nine serial 2-fold dilutions are prepared in DMSO. Ten μL of each dilution in DMSO is transferred to 100 μL of medium, mixed well, and then 5 μL of this dilution is transferred in quadruplicate to wells containing cells. The final high concentration of each compound is typically 5 μM. Plates are returned to the incubator for three days. At the time of drug addition to the experimental plates, the MTS assay is run on the “time 0” plate. This produced the “time 0 MTS value” which is related to the number of viable cells per well at the time of drug addition.
After three days of culture with test compounds (day 5 overall), the MTS assay is done on all wells of the experimental plates. The absorbance values of the quadruplicate sample wells are averaged and divided by the average of the “time 0” values. The average of control wells without drug, divided by the average “time 0” value, gave the maximal relative increase in MTS color yield due to cell growth during the final three days of culture. The average of control wells with high drug concentration, divided by the “time 0” value, gave the minimal relative color yield for cells that are completely killed. The nine values for each compound are plotted against concentration, and the concentration that produced a relative color yield half way between the maximum and minimum is taken as the IC50 value.
COLO 205 is a human colon carcinoma cell line that is used for comparative testing of the examples of this invention and several reference compounds. This line is sensitive to paclitaxel and vincristine.

HeLa cells = test: Cell cycle analysis with HeLa cells; assay type: cell-based, human; conditions: 18 hr
Experimental: HeLa cells are harvested by trypsinization, washed, counted and distributed to wells of 12-well plates at 125,000 cells per well in 2 mL medium. Cells are cultured overnight. […] Cells are continued in culture for 18 hr after compound addition, then cells in each well are harvested (taking care to recover both adherent and non-adherent cells) and processed using the CycleTEST PLUS kit (Becton Dickinson Immunocytometry Systems, San Jose, Calif.). Flow cytometry is done with a FACSort instrument (Becton Dickinson).
This procedure measures the percentages of cells in a population that are in the G1, S, and G2/M phases of the cell cycle. It utilizes staining of cell nuclei with propidium iodide and analysis by flow cytometry.

pure tubulin = test: Tubulin polymerization test with pure tubulin without GTP; assay type: biochemical, bovine; conditions: no GTP
Experimental: Medium is RPMI-1640 with L-glutamine, supplemented with 10% heat-inactivated fetal calf serum, 100 units/ml penicillin, and 100 μg/ml streptomycin (Gibco, Grand Island, N.Y.). Microtubule-associated protein (MAP)-rich tubulin, containing about 70% tubulin and 30% MAPs (#ML113), and highly purified tubulin (>99% pure, #TL238), both from bovine brain, are obtained from Cytoskeleton, Inc., Denver, Colo. PEM buffer (80 mM piperazine-N,N′-bis[2-ethanesulfonic acid], pH 6.9, 1 mM ethylene glycol-bis(β-aminoethyl ether)-N,N,N′,N′-tetraacetic acid, 1 mM magnesium chloride) and guanosine 5′-triphosphate (GTP) are also obtained from Cytoskeleton. [3H]paclitaxel, specific activity 14.7 Ci/mmol, is purchased from Moravek Biochemicals (Brea, Calif.). [^3H]vinblastine, specific activity 9.60 Ci/mmol and MicroSpin G-50 columns are obtained from Amersham Biosciences (Piscataway, N.J.). […] Other reagents are obtained from Sigma (St. Louis, Mo.).
Two variations of this procedure are done, one using MAP-rich tubulin and one using pure tubulin.
The procedure with pure tubulin is similar except for the following changes. […] The supernatant after centrifugation is dispensed to a 96-well plate already containing compounds. Each compound is tested in duplicate at six serial 3-fold dilutions starting at 24.3 μM. The plate reader is thermostated at 35°.

## C[C@H](Nc1c(-c2c(F)cc(OCCO)cc2F)c(Cl)nc2ncnn12)C(F)(F)F [Example 19, 2-[4-(5-Chloro-7-{[(1S)-2,2,2-trifluoro-1-methylethyl]amino}[1,2,4]triazolo[1,5-a]pyrimidin-6-yl)-3,5-difluorophenoxy]ethanol]
COLO 205 cells
  IC50: 422 nM

## C[C@H](Nc1c(-c2c(F)cc(OCCCN)cc2F)c(Cl)nc2ncnn12)C(F)(F)F [Example 5, 6-[4-(3-Aminopropoxy)-2,6-difluorophenyl]-5-chloro-N-[(1S)-2,2,2-trifluoro-1-methylethyl][1,2,4]triazolo[1,5-a]pyrimidin-7-amine]
COLO 205 cells
  IC50: 452 nM

## CC(=O)O[C@@]12CO[C@@H]1C[C@H](O)[C@@]1(C)C(=O)[C@H](O)C3=C(C)[C@@H](OC(=O)[C@H](O)[C@@H](NC(=O)OC(C)(C)C)c4ccccc4)C[C@@](O)([C@@H](OC(=O)c4ccccc4)[C@H]21)C3(C)C [Docetaxel, reference compound]
HeLa cells; 0.25 nM
  Percent in Cell Cycle Phase >4N: 2%
  Percent in Cell Cycle Phase Apop: 8%
  Percent in Cell Cycle Phase G1: 58%
  Percent in Cell Cycle Phase G2/M: 16%
  Percent in Cell Cycle Phase S: 17%
HeLa cells; 0.5 nM
  Percent in Cell Cycle Phase >4N: 2%
  Percent in Cell Cycle Phase Apop: 19%
  Percent in Cell Cycle Phase G1: 48%
  Percent in Cell Cycle Phase G2/M: 14%
  Percent in Cell Cycle Phase S: 18%
HeLa cells; 1 nM
  Percent in Cell Cycle Phase >4N: 2%
  Percent in Cell Cycle Phase Apop: 35%
  Percent in Cell Cycle Phase G1: 35%
  Percent in Cell Cycle Phase G2/M: 14%
  Percent in Cell Cycle Phase S: 15%
HeLa cells; 2 nM
  Percent in Cell Cycle Phase >4N: 2%
  Percent in Cell Cycle Phase Apop: 48%
  Percent in Cell Cycle Phase G1: 19%
  Percent in Cell Cycle Phase G2/M: 14%
  Percent in Cell Cycle Phase S: 18%
HeLa cells; 3 nM
  Percent in Cell Cycle Phase >4N: 2%
  Percent in Cell Cycle Phase Apop: 52%
  Percent in Cell Cycle Phase G1: 15%
  Percent in Cell Cycle Phase G2/M: 14%
  Percent in Cell Cycle Phase S: 17%
HeLa cells; 4 nM
  Percent in Cell Cycle Phase >4N: 2%
  Percent in Cell Cycle Phase Apop: 49%
  Percent in Cell Cycle Phase G1: 12%
  Percent in Cell Cycle Phase G2/M: 22%
  Percent in Cell Cycle Phase S: 16%
HeLa cells; 5 nM
  Percent in Cell Cycle Phase >4N: 3%
  Percent in Cell Cycle Phase Apop: 42%
  Percent in Cell Cycle Phase G1: 9%
  Percent in Cell Cycle Phase G2/M: 31%
  Percent in Cell Cycle Phase S: 17%
HeLa cells; 6 nM
  Percent in Cell Cycle Phase >4N: 4%
  Percent in Cell Cycle Phase Apop: 37%
  Percent in Cell Cycle Phase G1: 10%
  Percent in Cell Cycle Phase G2/M: 33%
  Percent in Cell Cycle Phase S: 17%
HeLa cells; 8 nM
  Percent in Cell Cycle Phase >4N: 4%
  Percent in Cell Cycle Phase Apop: 29%
  Percent in Cell Cycle Phase G1: 7%
  Percent in Cell Cycle Phase G2/M: 48%
  Percent in Cell Cycle Phase S: 11%
HeLa cells; 10 nM
  Percent in Cell Cycle Phase >4N: 4%
  Percent in Cell Cycle Phase Apop: 35%
  Percent in Cell Cycle Phase G1: 9%
  Percent in Cell Cycle Phase G2/M: 37%
  Percent in Cell Cycle Phase S: 16%
HeLa cells; 20 nM
  Percent in Cell Cycle Phase >4N: 3%
  Percent in Cell Cycle Phase Apop: 38%
  Percent in Cell Cycle Phase G1: 8%
  Percent in Cell Cycle Phase G2/M: 40%
  Percent in Cell Cycle Phase S: 12%
Pure tubulin; 0.1 μM
  absorbance increase, polymerization of pure tubulin: small increase in absorbance
Pure tubulin; 24.3 μM
  A340 at 0 min: 0
  A340 at 5 min: 0.20
  A340 at 10 min: 0.20
  A340 at 15 min: 0.20
  A340 at 20 min: 0.20
Pure tubulin; 24.3 μM, first 5 min
  absorbance increase, polymerization of pure tubulin: rapid increase in absorbance

## COc1cc2c(c(OC)c1OC)-c1ccc(OC)c(=O)cc1[C@@H](NC(C)=O)CC2 [Colchicine, reference compound]
HeLa cells; 5 nM
  Percent in Cell Cycle Phase >4N: 2%
  Percent in Cell Cycle Phase Apop: 6%
  Percent in Cell Cycle Phase G1: 60%
  Percent in Cell Cycle Phase G2/M: 16%
  Percent in Cell Cycle Phase S: 17%
HeLa cells; 10 nM
  Percent in Cell Cycle Phase >4N: 2%
  Percent in Cell Cycle Phase Apop: 7%
  Percent in Cell Cycle Phase G1: 59%
  Percent in Cell Cycle Phase S: 16%
HeLa cells; 15 nM
  Percent in Cell Cycle Phase >4N: 2%
  Percent in Cell Cycle Phase Apop: 9%
  Percent in Cell Cycle Phase G1: 50%
  Percent in Cell Cycle Phase G2/M: 23%
  Percent in Cell Cycle Phase S: 17%
HeLa cells; 17.5 nM
  Percent in Cell Cycle Phase >4N: 2%
  Percent in Cell Cycle Phase Apop: 9%
  Percent in Cell Cycle Phase G1: 51%
  Percent in Cell Cycle Phase G2/M: 21%
HeLa cells; 20 nM
  Percent in Cell Cycle Phase >4N: 2%
  Percent in Cell Cycle Phase Apop: 13%
  Percent in Cell Cycle Phase G1: 40%
  Percent in Cell Cycle Phase G2/M: 28%
HeLa cells; 25 nM
  Percent in Cell Cycle Phase >4N: 3%
  Percent in Cell Cycle Phase Apop: 14%
  Percent in Cell Cycle Phase G1: 36%
  Percent in Cell Cycle Phase G2/M: 27%
  Percent in Cell Cycle Phase S: 20%
HeLa cells; 30 nM
  Percent in Cell Cycle Phase >4N: 3%
  Percent in Cell Cycle Phase Apop: 14%
  Percent in Cell Cycle Phase G1: 27%
  Percent in Cell Cycle Phase G2/M: 36%
  Percent in Cell Cycle Phase S: 20%
HeLa cells; 40 nM
  Percent in Cell Cycle Phase >4N: 4%
  Percent in Cell Cycle Phase Apop: 11%
  Percent in Cell Cycle Phase G1: 16%
  Percent in Cell Cycle Phase G2/M: 48%
  Percent in Cell Cycle Phase S: 22%
HeLa cells; 50 nM
  Percent in Cell Cycle Phase >4N: 4%
  Percent in Cell Cycle Phase Apop: 11%
  Percent in Cell Cycle Phase G1: 11%
  Percent in Cell Cycle Phase G2/M: 56%
HeLa cells; 100 nM
  Percent in Cell Cycle Phase >4N: 3%
  Percent in Cell Cycle Phase Apop: 15%
  Percent in Cell Cycle Phase G1: 11%
  Percent in Cell Cycle Phase G2/M: 55%
  Percent in Cell Cycle Phase S: 16%
